Measurements reported in patent US20240417734A1, “Methods for Treating Glioblastoma by Targeting Oncomirs” (University of Connecticut, priority 2021, published 2024).

How the values were obtained:
[1] = test system: patient (G22) derived intracranial gliomas; experiment: Survival study, patient-derived G22 orthotopic tumors; assay type: in vivo, mice; conditions: G22 orthotopic model; single dose TMZ 25 mg/kg
Method: (§1) Animals were anaesthetized using a mixture of ketamine (100 mg/kg) and xylazine (10 mg/kg) via intraperitoneal injection. Anesthetized animals were then placed in a stereotaxic frame and sterilized the scalp with betadine and alcohol. To expose the coronal and sagittal sutures, a midline scalp incision was created, and a burr hole was drilled 2 mm lateral to the sagittal suture and 0.5 mm anterior to the bregma. U87 or G22 cells ([…]) in 3 μL PBS were injected into the right stratum over 3 min using a 10-μL Hamilton syringe. The animal was left 5 min for tissue equilibration before and after infusion. When infusion was finished, the burr hole was filled with bone wax and skin was stapled and cleaned.
(§2) CED in tumor bearing mice was similar to tumor inoculation by reopening the burr hole used for tumor inoculation. A micro-infusion pump (World Precision Instruments) was used to infuse 6 μL of NPs at a rate of […].
(§3) Tumors grew for 6 days before the administration of treatment. Intracranial CED of sγPNA/BNP was conducted following the same surgical procedure as described. TMZ (25 mg/kg) in PBS was administered intraperitoneally on day 7. Animals were monitored daily and weighed every week. […] Total RNA in the tumor and contralateral hemisphere was isolated using mirVana miRNA Isolation Kit and analyzed by real-time PCR detection system as previously described.

U87 cells = experiment: Cell viability assay, U87; assay type: cell-based, human; conditions: BNP 0.5 mg/mL, TMZ 20 μM
Method: Cells were seeded in 96-well plates at a density of 5,000 cells/well and treated with increasing concentrations of NP formulations. Cell viability was evaluated by CellTiter-Glo Luminescent Cell Viability Assay (Promega) after 48 h, 72 h treatment. Luminescence was measured using a plate reader (SpectraMax M5) and relative cell viability was normalized to the viability of untreated cells. For TMZ involved combination studies, cells were seeded in 96-well plates at a density of 1,000 cells/well and exposed to sγPNA/NNP and sγPNA/BNP. After 72 h of treatments, NPs were removed and TMZ was added to the wells. Cell viability was measured as described above after 6 days of treatment.

intracranial U87 tumors = experiment: Survival study, intracranial U87 tumors; assay type: in vivo, mice; conditions: NPs by CED 6 days post inoculation, TMZ 25 mg/kg i.p.
Method: as §1, §2, §3

Q: What does the source list for `Cn1nnc2c(C(N)=O)ncn2c1=O` [TMZ, Temozolomide]?
A: Median survival [1]: 79 days; Cell viability/100 (U87 cells): 0.66; viability at 20 µM (U87 cells; Homo sapiens, U-87 MG, read-out: Cell viability (% of control)): 66%; Median survival (intracranial U87 tumors): 81 days
